We go through one molecule from patent US20250186411A1, “Methods of Treating Disorders Associated with Overactivation of IKKB” (The United States Government as represented by the …, priority 2023, published 2025).

“And” between values parts separate entries of the source, which are not always exact repeats. Equal values may be shown once.

One series concerns the target IKKβ (Homo sapiens, UniProt O14920).
The next series has as its target IKBKB^M96V mutant (Homo sapiens, UniProt O14920, M96V).
In series [1] the target is hERG Human Potassium Ion Channel (Homo sapiens, UniProt Q12809). Kind of series: hERG Human Potassium Ion Channel Cell Based QPatch CiPA Assay. An excerpt: A 500 ms pulse to −40 mV is delivered to measure the leaking current, which is subtracted from the tail current on-line. The cell is subsequently depolarized to +40 mV for 500 ms and then to −80 mV over a 100 ms ramp to elicit the hERG tail current. The parameters measured were the maximum tail current evoked on stepping to 40 mV and ramping back to −80 mV from the test pulse. All data were filtered for seal quality, seal drop, and current amplitude.

For series [2], the system named is KLF15 promoter (pEZX-FR03hKLF15p human podocytes). Nature of the series: Half maximal effective concentration (EC50) of KLF15 reporter activity. It is filed as cell-based. As to conditions: KLF15 reporter activity, dose-response; read-out: EC50.
Series [3] concerns KLF15 promoter with mutation in the GRE (pEZX-FR03hKLF5p-mutant podocytes). Nature of the series: GR-mutant KLF15 reporter assay. It is filed as cell-based, human. As to conditions: as compared to DMSO.
Series [4] has as its system KLF15 promoter (pEZX-FR03hKLF5p human podocytes). Nature of the series: Lipopolysaccharide treatment in human podocytes, KLF15 reporter activity. It is filed as cell-based. The note with it: as compared to DMSO. Here is the method:
Differentiated pEZX-FR03hKLF5p human podocytes were treated with 25 μg/ml lipopolysaccharide (LPS) or vehicle and 1 μM KLF15 agonist or vehicle control for 24 hours. Firefly and renilla luciferase assay were measured initially to determine relative KLF15 reporter activity.

A further series deals with mice. As to conditions: as compared to DMSO treatment.
The test system of the next series is Tg26 mice. Kind of series: HIV-1 transgenic (Tg26) model. The series is classed as in vivo, mouse. Here is the method:
Urine albumin was quantified by ELISA using a kit from Bethyl Laboratory Inc. Urine creatinine levels were measured in the same samples using the Creatinine Colorimetric Assay Kit (500701; Cayman Chemical) as per manufacturer's protocol.
Briefly formalin-fixed and paraffin embedded sections were deparaffinized, and endogenous peroxidase was inactivated with H2O2. All kidney sections from these mice were prepared in identical fashion. Immunofluorescence was performed using rabbit anti-KLF15, mouse anti-WT1 (Santa Cruz, SC-7385), rabbit anti-Synaptopodin (Sigma, SAB3500585), rabbit anti-p65 (Cell Signaling Tech, 8242S) antibodies. After washing, sections were incubated with the appropriate fluorophore-linked secondary antibody (Alexa Fluor 647 Donkey anti-mouse, Alexa Fluor 568 Donkey anti-rabbit antibodies, Life Technologies). After counter staining with Hoechst (Thermo Fisher Scientific), slides were mounted in Prolong Gold mounting media (Thermo Fisher Scientific) and photographed under a Nikon Eclipse Ni-E Fully Motorized Microscope System with a DS-Qi2 digital camera.
Quantification of KLF15 staining in the podocytes was determined by quantifying the intensity of KLF15 staining (optical density) in WT1+Hoechst staining using ImageJ 1.53c software (National Institute of Health, http://imagej.nih.gov/ij).
Mice were perfused with PBS, and the kidneys were fixed in 10% phosphate buffered formalin overnight and switched to 70% ethanol before processing for histology. Kidney tissue was embedded in paraffin by Stony Brook Medicine Research Histology Core Laboratory (RHCL)—Department of Pathology and 4-μm-thick sections were stained with periodic acid-Schiff (PAS), hematoxylin & eosin (H&E), and masson's trichrome (Sigma-Aldrich). Quantification of % FSGS was determined by renal pathology in a blinded fashion (Huntsman Cancer Institute-University of Utah Health).

Series [5] relates to NF-κB signaling (p50, p65, IκBα).
Description: Differentiated human podocytes were lysed with a fractionation buffer containing 1× protease and phosphatase inhibitor cocktail (Thermo Fisher Scientific) and separate cytoplasmic and nuclear fractions using a modified procedure described before (72).

Broadly, the IC50 is the concentration that inhibits the measured activity by half. For orientation: EC50 means the midpoint of the concentration-response curve.

Chain of hERG Human Potassium Ion Channel (Q12809 whole entry): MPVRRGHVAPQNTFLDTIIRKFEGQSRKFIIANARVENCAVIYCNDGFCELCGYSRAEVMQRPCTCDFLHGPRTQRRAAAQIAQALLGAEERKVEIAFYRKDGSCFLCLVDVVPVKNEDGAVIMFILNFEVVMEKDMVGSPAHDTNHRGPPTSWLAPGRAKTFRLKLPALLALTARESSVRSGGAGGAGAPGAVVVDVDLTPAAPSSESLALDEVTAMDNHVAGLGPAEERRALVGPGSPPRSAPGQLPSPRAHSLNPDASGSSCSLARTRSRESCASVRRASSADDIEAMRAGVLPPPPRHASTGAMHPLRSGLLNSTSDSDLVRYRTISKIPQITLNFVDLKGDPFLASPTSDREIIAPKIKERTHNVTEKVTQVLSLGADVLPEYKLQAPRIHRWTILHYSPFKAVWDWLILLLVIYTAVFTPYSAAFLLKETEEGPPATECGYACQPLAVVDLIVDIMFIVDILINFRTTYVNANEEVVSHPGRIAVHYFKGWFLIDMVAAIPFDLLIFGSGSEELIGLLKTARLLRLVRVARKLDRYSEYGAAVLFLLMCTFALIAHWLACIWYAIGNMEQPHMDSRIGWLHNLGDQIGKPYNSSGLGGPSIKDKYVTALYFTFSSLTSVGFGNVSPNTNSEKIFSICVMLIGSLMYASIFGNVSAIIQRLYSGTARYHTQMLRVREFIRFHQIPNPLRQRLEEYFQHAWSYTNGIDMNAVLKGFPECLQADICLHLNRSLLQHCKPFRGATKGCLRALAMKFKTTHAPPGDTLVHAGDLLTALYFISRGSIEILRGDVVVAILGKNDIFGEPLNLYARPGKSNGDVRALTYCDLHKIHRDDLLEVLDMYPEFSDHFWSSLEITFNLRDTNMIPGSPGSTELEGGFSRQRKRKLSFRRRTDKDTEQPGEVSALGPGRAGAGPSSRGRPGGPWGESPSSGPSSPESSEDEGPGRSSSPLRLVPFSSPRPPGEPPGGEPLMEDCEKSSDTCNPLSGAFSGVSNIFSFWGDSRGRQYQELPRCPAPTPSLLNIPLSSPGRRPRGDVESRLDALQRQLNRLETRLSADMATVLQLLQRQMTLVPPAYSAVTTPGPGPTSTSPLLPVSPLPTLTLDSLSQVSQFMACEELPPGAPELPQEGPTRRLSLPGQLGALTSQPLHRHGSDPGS
Chain of IKKβ (O14920 whole entry): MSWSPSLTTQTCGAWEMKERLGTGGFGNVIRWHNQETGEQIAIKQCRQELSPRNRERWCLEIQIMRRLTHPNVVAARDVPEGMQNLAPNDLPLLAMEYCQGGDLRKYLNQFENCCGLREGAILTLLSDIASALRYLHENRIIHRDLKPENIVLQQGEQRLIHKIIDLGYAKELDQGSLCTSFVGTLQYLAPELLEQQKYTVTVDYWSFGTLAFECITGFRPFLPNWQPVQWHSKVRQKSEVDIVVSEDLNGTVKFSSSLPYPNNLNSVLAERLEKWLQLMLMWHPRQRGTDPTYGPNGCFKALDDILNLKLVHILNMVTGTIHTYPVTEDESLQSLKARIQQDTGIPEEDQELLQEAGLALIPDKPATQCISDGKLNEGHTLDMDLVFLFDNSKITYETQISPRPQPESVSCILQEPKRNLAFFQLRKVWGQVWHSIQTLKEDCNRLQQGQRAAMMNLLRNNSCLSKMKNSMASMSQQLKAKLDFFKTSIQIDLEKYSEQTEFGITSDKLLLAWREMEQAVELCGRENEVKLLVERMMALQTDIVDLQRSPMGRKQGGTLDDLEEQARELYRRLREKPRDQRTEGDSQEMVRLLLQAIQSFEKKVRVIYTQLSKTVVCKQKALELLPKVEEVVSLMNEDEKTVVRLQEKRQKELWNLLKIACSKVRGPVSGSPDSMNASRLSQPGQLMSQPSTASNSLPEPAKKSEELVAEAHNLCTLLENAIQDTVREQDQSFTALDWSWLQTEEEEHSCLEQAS
Chain of IKBKB^M96V mutant (O14920 whole entry M96V): as the sequence (O14920 whole entry) above, with M96V counted along it
Protocol for IKBKB^M96V mutant: (§1) After the kinase reaction, an equal volume of ADP-Go™ Reagent is added to both terminate the kinase reaction and deplete the remaining ATP. Subsequently, the Detection Reagent is added to simultaneously convert ADP to ATP and measure the concentrations of newly synthesized ATP using a luciferase/luciferin reaction. The light generated is measured using a 96-well plate reader SpectraMax M3 (Molecular Devices). Luminescence can be correlated to ADP concentrations by using an ATP-to-ADP conversion curve.
Protocol for IKKβ: as §1

Consider `CSc1ccc(NC(=O)Nc2ccc(C)nc2)cc1` [BT503], for which, at IKKβ (ATP 50 μM), the “inhibition of kinase activity at higher ATP concentrations” value is “mitigated”. At IKKβ (read-out: IC50 (IKKβ kinase activity), IKBKB^WT), the IC50 was 163 nM. Moreover, the “IKKβ kinase inhibition in IKBKB^M96V mutant as compared to IKBKB^WT” value on IKBKB^M96V mutant is “resistance to IKKβ kinase inhibition”. For the same molecule, in series [1] (3 μM), the “% inhibition mean” value was found to be 1.20%, the “% inhibition n1” value is given as −2.01% and the “% inhibition n2” value was determined as 4.41%. In addition, in series [1] (10 μM), the “% inhibition mean” value stood at 6.25%, the “% inhibition n1” value was −0.08% and the “% inhibition n2” value was determined as 12.57%. Also, the hERG inhibition entry in [1] (3-10 μM, as compared to positive control) was “low inhibition”. The EC50 in series [2] was ~7.1 nM and < 10 nM. Also, the KLF15-mutant reporter activity entry in series [3] is recorded as “induced KLF15 activity”. Further, in series [4], the “KLF15 activity in the setting of LPS treatment” value is reported as “maintained the elevated KLF15 activity”. Besides, in the series on mice, the “aspartate aminotransferase (AST), alanine transaminase (ALT) levels” value was “no significant difference”; the “histological changes in the kidney, heart, and liver tissue” value is on record as “no significant difference”. Further, in the series with Tg26 mice, the “p65 expression (kidney lysates)” value is “reduced”. The albuminuria result in the series with Tg26 mice (daily for 14 days, vs DMSO) was “significantly mitigated the increase in albuminuria”. In the series on Tg26 mice (vs DMSO), the “% of glomeruli with focal segmental and global GS lesions” value is reported as “significantly reduced”; the glomerular synaptopodin expression result was “restored”; the interstitial fibrosis result is listed as “reduced interstitial fibrosis”; the “kidney function (serum urea nitrogen and creatinine)” value is “improved kidney function”. The “podocyte number (WT1+ podocytes per glomerular cross-sectional area)” value in the series with Tg26 mice (vs DMSO) is reported as “preserved podocyte number”. Moreover, the “nuclear localization of p50 and p65” value in series [5] (LPS-treated podocytes) was “mitigated this translocation”. Moreover, the IκBα expression result in series [5] (vs DMSO in the setting of LPS treatment) is “significantly increased”.
